# Measured values: paper PMC6277555, “Short Symmetric-End Antimicrobial Peptides Centered on β-Turn Amino Acids Unit Improve Selectivity and Stability” (Frontiers in Microbiology, 2018)
# Residues, ends and D or L forms follow the SMILES beside them.
# Key:
# B. subtilis CMCC 63501 = format: cell-based, Bacillus subtilis
# Experimental: (§1) The minimal inhibitory concentration (MIC) was determined according to a previously described method ([Chou et al., 2016]). Bacteria were cultured overnight to mid-log phase in MHB at 37°C and then diluted to give final concentrations ranging from 2 × 10^5 to 7 × 10^5 CFU/mL. Then, 50 μL of serial twofold dilutions of the peptides were added to each well in 96-well microtiter plates with a mixed solution containing 0.01% acetic acid and 0.2% bovine serum albumin (BSA, Sigma) was used to dissolve and dilute the peptides. Then, equal amounts of bacterial aliquots were incubated with the above peptide solution for 18–24 h at 37°C. The experiment was performed in triplicate using three replicates for each peptide and each bacterium. The broth was employed as a negative control and the broth with microbial cells was used as a positive control. The lowest concentration of peptide that prevented visible turbidity was defined as the MIC.
# E. coli UB1005 = format: cell-based, Escherichia coli
# Experimental: as §1
# [1] = Calcein dye leakage from negatively charged LUVs; conditions: POPG/CL (3:1) LUVs, 100 μM lipid, 15 min, all tested concentrations (2 to 64 μM); relative to 0.1% Triton X-100
# Experimental: Prepared calcein-entrapped large unilamellar vesicles (LUVs) were optimized using a previous method ([Stromstedt et al., 2009]). The negatively charged lipids composed of POPG/CL (3:1) were dissolved in chloroform, dried with a stream of nitrogen and resuspended in dye buffer solution (70 mM calcein, 10 mM Tris, 150 mM NaCl, and 0.1 mM EDTA, pH 7.4). The suspension was subjected to 10 freeze-thaw cycles in liquid nitrogen and extruded 21 times through polycarbonate filters (two stacked 100-nm pore size filters) with a LiposoFast extruder (Avestin, Inc., Canada). Untrapped calcein was removed by gel filtration on a Sephadex G-50 column. The lipid concentration was determined by quantitative phosphorus analysis. […] The leakage of calcein from LUVs was monitored by measuring the fluorescence intensity at an excitation wavelength of 490 nm and an emission wavelength of 520 nm on an F-4500 Fluorescence Spectrophotometer (Hitachi, Japan). […] The percentage of the calcein release caused by the AMPs was calculated using the following equation: (3) Dye release (%)=(Fobs−F0)/(F100−F0)×100% where F0 is the fluorescence intensity of the liposomes (background) and Fobs and F100 are the fluorescence intensities achieved by the peptides and Triton X-100, respectively.
# S. aureus = test: Time killing assay; format: cell-based, Staphylococcus aureus; conditions: mean of three independent assays
# Experimental: The ability of peptides to kill bacterial cells was further investigated by analyzing the fraction of cell survival upon peptide treatment at various exposure times according to a previously described method ([Wiradharma et al., 2012]). Briefly, E. coli and S. aureus were treated at MIC and 2 × MIC concentrations with peptides. At various time periods (0, 5, 10, 30, 60, 90, 120, and 150 min), microbial suspensions were diluted at three different dilutions and plated on MHA plates. Microbial colonies were formed and counted after 24 h of incubation. The results were presented as the mean data from three independent assays.
# S. pullorum C79-13 = format: cell-based, Salmonella pullorum
# Experimental: as §1
# E. coli ATCC25922 = format: cell-based, Escherichia coli
# Experimental: as §1, with “18-24” for “18–24”, “MIC. The condition sensitivity of peptides was tested in an MIC assay in different environments, including salt sensitivity, thermal sensitivity and different pH values similar to our previous method ([[…] et al., 2008]; [Ma et al., 2012]). […] For the heat resistance experiments, the peptides were incubated at 100°C for 30 min and cooled on ice for 10 min. […] The determination methods for these MIC assays were same as described above. To test the effects of serum on the antimicrobial activities of the peptides, human serum was dissolved in MHB to reach final concentrations of 25 and 50%. The determination methods for these MIC assays were same as described above.” for “MIC.”
# [2] = tested on: S. epidermidis ATCC 12228; format: cell-based, Staphylococcus epidermidis
# Experimental: as §1
# S. aureus ATCC 29213 = format: cell-based, Staphylococcus aureus
# Experimental: as §1, with “18-24” for “18–24”, “MIC. The condition sensitivity of peptides was tested in an MIC assay in different environments, including salt sensitivity, thermal sensitivity and different pH values similar to our previous method ([[…] et al., 2008]; [Ma et al., 2012]). […] For the heat resistance experiments, the peptides were incubated at 100°C for 30 min and cooled on ice for 10 min. […] The determination methods for these MIC assays were same as described above. To test the effects of serum on the antimicrobial activities of the peptides, human serum was dissolved in MHB to reach final concentrations of 25 and 50%. The determination methods for these MIC assays were same as described above.” for “MIC.”
smiles,measurement,setting,value
CC[C@H](C)[C@H](N)C(=O)N[C@@H](Cc1c[nH]cn1)C(=O)N[C@@H](CCCCN)C(=O)N[C@@H](Cc1ccccc1)C(=O)N[C@@H](Cc1c[nH]c2ccccc12)C(=O)N[C@@H](CCCNC(=N)N)C(=O)N[C@@H](CS)C(=O)N[C@@H](CCCNC(=N)N)C(=O)N[C@@H](CCCNC(=N)N)C(=O)N[C@@H](CCCNC(=N)N)C(=O)N[C@@H](Cc1ccccc1)C(=O)N[C@@H](CS)C(=O)N[C@@H](CCCNC(=N)N)C(=O)N[C@@H](Cc1c[nH]c2ccccc12)C(=O)N[C@@H](Cc1ccccc1)C(=O)N[C@@H](CCCCN)C(=O)N[C@@H](Cc1c[nH]cn1)C(=O)N[C@H](C(N)=O)[C@@H](C)CC [PQ] (H-IHKFWRCRRRFCRWFKHI-NH2; N-terminus assumed),MIC,B. subtilis CMCC 63501,16 µM
same,MIC,E. coli UB1005,8 µM
same,Dye leakage (calcein release),[1],more than 40%
same,Time to kill S. aureus,S. aureus; peptide at 1 × MIC,30 min
same,Time to kill S. aureus,S. aureus; peptide at 2 × MIC,30 min
same,MIC,S. pullorum C79-13,8 µM
same,MIC,E. coli ATCC25922; ATCC25922,16 µM
same,"MIC, CaCl2",E. coli ATCC25922; ATCC25922,32 µM
same,"MIC, Control",E. coli ATCC25922; ATCC25922,16 µM
same,"MIC, FeCl3",E. coli ATCC25922; ATCC25922,8 µM
same,"MIC, Heat (100°C)",E. coli ATCC25922; ATCC25922,32 µM
same,"MIC, KCl",E. coli ATCC25922; ATCC25922,4 µM
same,"MIC, MgCl2",E. coli ATCC25922; ATCC25922,4 µM
same,"MIC, NH4Cl",E. coli ATCC25922; ATCC25922,4 µM
same,"MIC, NaCl",E. coli ATCC25922; ATCC25922,8 µM
same,"MIC, ZnCl2",E. coli ATCC25922; ATCC25922,4 µM
same,"MIC, pH 4.0","E. coli ATCC25922; ATCC25922, pH 4",8 μM
same,"MIC, pH 6.0","E. coli ATCC25922; ATCC25922, pH 6",8 μM
same,"MIC, pH 8.0","E. coli ATCC25922; ATCC25922, pH 8",4 μM
same,"MIC, pH 10.0","E. coli ATCC25922; ATCC25922, pH 10",4 μM
same,MIC,[2],8 µM
same,MIC,S. aureus ATCC 29213; ATCC 29213,8 µM
same,"MIC, CaCl2",S. aureus ATCC 29213; ATCC 29213,8 µM
same,"MIC, Control",S. aureus ATCC 29213; ATCC 29213,8 µM
same,"MIC, FeCl3",S. aureus ATCC 29213; ATCC 29213,8 µM
same,"MIC, Heat (100°C)",S. aureus ATCC 29213; ATCC 29213,32 µM
same,"MIC, KCl",S. aureus ATCC 29213; ATCC 29213,8 µM
same,"MIC, MgCl2",S. aureus ATCC 29213; ATCC 29213,8 µM
same,"MIC, NH4Cl",S. aureus ATCC 29213; ATCC 29213,8 µM
same,"MIC, NaCl",S. aureus ATCC 29213; ATCC 29213,8 µM
same,"MIC, ZnCl2",S. aureus ATCC 29213; ATCC 29213,8 µM
same,"MIC, pH 4.0","S. aureus ATCC 29213; ATCC 29213, pH 4",8 μM
same,"MIC, pH 6.0","S. aureus ATCC 29213; ATCC 29213, pH 6",8 μM
same,"MIC, pH 8.0","S. aureus ATCC 29213; ATCC 29213, pH 8",8 μM
same,"MIC, pH 10.0","S. aureus ATCC 29213; ATCC 29213, pH 10",8 μM
